Test results published in US20080312268A1, “Substituted tricyclic piperidone compounds” (Gruenenthal GMBH, priority 2005, published 2008).
Structures can show the parent of a compound that is named as a salt.

Assays:
[1] = molecular target: T1, NA re-uptake (Rattus norvegicus, UniProt Q63380); experiment: Measurement of noradrenalin re-uptake in rat brain synaptosomes; assay type: biochemical; conditions: synaptosomes (P2 fraction) from hypothalamus of male rat brains
T1 construct: Synaptosomes from rat brain areas were freshly isolated for the purposes of these in-vitro studies; from tissue; host or cells: rat brain synaptosomes (P2 fraction), hypothalamus of male rats
Description: Synaptosomes from rat brain areas were freshly isolated for the purposes of these in-vitro studies. In each case a “P2” fraction was used, which was prepared in accordance with the instructions given by Gray and Whittaker (E. G. Gray und V. P. Whittaker (1962) J. Anat. 76, 79-88). For NA uptake these vesicular particles were isolated from the hypothalamus of male rat brains.
(§1) A detailed description of the method can be found in the literature (M. Ch. Frink, H.-H. Hennies, W. Englberger, M. Haurand and B. Wilffert (1996) Arzneim.-Forsch./Drug Res. 46 (III), 11, 1029-1036).

[2] = molecular target: T2, 5-HT re-uptake (Rattus norvegicus, UniProt P31652); experiment: Measurement of serotonin re-uptake in rat brain synaptosomes; assay type: biochemical; conditions: synaptosomes (P2 fraction) from medulla and pons region of male rat brains
T2 construct: Synaptosomes from rat brain areas were freshly isolated for the purposes of these in-vitro studies; from tissue; host or cells: rat brain synaptosomes (P2 fraction), medulla and pons of male rats
Description: Synaptosomes from rat brain areas were freshly isolated for the purposes of these in-vitro studies. In each case a “P2” fraction was used, which was prepared in accordance with the instructions given by Gray and Whittaker (E. G. Gray und V. P. Whittaker (1962) J. Anat. 76, 79-88). For 5HT uptake these vesicular particles were isolated from the medulla and pons region of male rat brains.
as §1

T2 sequence (P31652 whole entry): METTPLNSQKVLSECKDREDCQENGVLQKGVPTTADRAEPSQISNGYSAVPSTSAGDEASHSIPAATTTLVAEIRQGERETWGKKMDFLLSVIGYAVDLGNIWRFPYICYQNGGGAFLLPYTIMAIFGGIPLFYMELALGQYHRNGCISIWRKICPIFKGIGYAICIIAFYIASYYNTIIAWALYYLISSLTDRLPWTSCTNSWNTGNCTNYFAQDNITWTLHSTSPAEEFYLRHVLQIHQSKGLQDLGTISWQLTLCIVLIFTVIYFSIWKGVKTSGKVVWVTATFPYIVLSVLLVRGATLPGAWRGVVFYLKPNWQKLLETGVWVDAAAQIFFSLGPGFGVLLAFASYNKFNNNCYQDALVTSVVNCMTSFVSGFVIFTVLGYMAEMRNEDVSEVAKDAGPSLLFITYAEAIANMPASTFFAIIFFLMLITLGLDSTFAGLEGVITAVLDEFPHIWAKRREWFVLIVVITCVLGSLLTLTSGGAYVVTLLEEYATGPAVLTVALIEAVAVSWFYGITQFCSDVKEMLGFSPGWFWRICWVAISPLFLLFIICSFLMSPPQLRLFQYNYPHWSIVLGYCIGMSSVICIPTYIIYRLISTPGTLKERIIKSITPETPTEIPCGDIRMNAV
T1 sequence (Q63380 1-617): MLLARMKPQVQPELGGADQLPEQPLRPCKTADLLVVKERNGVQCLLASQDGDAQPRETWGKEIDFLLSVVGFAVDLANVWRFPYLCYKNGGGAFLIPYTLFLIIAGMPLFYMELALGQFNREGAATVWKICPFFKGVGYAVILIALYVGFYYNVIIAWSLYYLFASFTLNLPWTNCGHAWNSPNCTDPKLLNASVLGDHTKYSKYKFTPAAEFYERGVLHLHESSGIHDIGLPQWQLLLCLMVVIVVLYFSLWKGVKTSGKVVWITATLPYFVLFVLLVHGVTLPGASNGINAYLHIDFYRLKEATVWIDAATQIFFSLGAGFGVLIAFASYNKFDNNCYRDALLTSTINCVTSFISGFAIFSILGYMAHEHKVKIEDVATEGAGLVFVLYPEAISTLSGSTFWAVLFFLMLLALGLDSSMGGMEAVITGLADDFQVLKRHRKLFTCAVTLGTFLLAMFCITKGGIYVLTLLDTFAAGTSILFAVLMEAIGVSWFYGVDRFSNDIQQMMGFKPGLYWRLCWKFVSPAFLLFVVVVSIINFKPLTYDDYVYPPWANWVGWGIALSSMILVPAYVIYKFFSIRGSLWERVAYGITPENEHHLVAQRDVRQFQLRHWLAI

Structure (SMILES)	melting point [°C]	NA re-uptake [10 μm], % inhibition [1] [%]	5-HT re-uptake [10 μm], % inhibition [2] [%]
CCOC(=O)C12Cc3ccccc3C(CN(C(=O)Nc3ccccc3)C1)C2=O (stereo not drawn)	199 to 203	–	–
CCOC(=O)C12Cc3ccccc3C(CN(Cc3ccccc3)C1)C2=O (stereo not drawn)	117 to 119	–	–
CCOC(=O)C12Cc3ccccc3C(CN(C)C1)C2=O (stereo not drawn) [Compound 9, Ethyl-N-methyl-11-oxo-1,3,4,6-tetrahydro-1,5-methano-3-benzazocine-5(2H)-carboxylate hydrochloride]	–	80	77

The next lines start with results.

melting point [°C]	Structure (SMILES)	NA re-uptake [10 μm], % inhibition [1] [%]	5-HT re-uptake [10 μm], % inhibition [2] [%]
158 to 160	CCOC(=O)C12Cc3ccc(C#N)cc3C(CN(Cc3ccccc3)C1)C2=O (stereo not drawn)	–	–
84 to 85	CCOC(=O)C12Cc3cc(OC)ccc3C(CN(Cc3ccccc3)C1)C2=O (stereo not drawn)	–	–
